These results are taken from patent US20040229873A1, “Treatment of neurodegenerative conditions” (BTG International Limited, priority 2003, published 2004).

Series [1] deals with patients suffering from MS. The series is described as follows: Case studies of MS patients treated with Lamotrigine, compared with matching patients. Format: in vivo, human. The text has this: The average maintenance dose of Lamotrigine in these conditions is 400 mgs per day, but the initial dose or the rate of escalation may cause several side effects.
In the present study, the inventors followed the clinician inventor's clinical practice, which adopted two strategies that had varied from the manufacturer's recommendations. Firstly, a very slow titration process starting with 25 mgs per day increasing the dose gradually (often over several weeks) to avoid adverse events. Secondly, a maintenance dose with mean of 600 mgs per day was applied. Using these two strategies, the inventors observed improvement in the clinical activity of MS and also stabilisation of the disease process. The beneficial effects are illustrated in the following two case studies compared with matching patients who had not been treated with Lamotrigine.
The first treated patient was a person. […] They were referred to the clinician inventor in 1998, and their clinically active disease at that time represented a valid indication for treatment with diseases modifying therapy (β-interferon or Copaxone). However, the therapy could not be started because of financial constraints that were then imposed by their Health Authority. They also complained of sharp pain affecting the legs, which was resistant to several types of analgesia and also resistant to tricyclic antidepressants. Accordingly, treatment was started with Lamotrigine to treat their pain.
The initial dose was 25 mgs per day, which was escalated gradually as outlined above. Their Expanded Disability Status Scale at that time was 2.5. Their painful symptoms improved following Lamotrigine therapy. They also noticed improvement in their other MS-related symptoms, such as muscle spasticity in the legs and daytime fatigue. […] Their EDSS score remained stable at 2.5. Such improvement seemed to be related to Lamotrigine therapy because they had received no immunosuppressive or steroid therapy during the past four years.
A second of Lamotrigine-treated patient was a person, who was diagnosed with relapsing remitting MS five years ago. They also had idiopathic generalised epilepsy since childhood, which was treated with sodium valproate. In the first two years following the diagnosis of MS, they had three clinical relapses. Their seizures also deteriorated and because of this, their anti-epileptic therapy was changed from sodium valproate to Lamotrigine. This drug was introduced at a low dose, and was escalated cautiously as outlined above. Their EDSS score at the beginning of treatment with Lamotrigine was 1.5. […] This improvement seemed to be related to Lamotrigine therapy since they had received no treatment with steroids or immunosuppressive drugs.

The test system of series [2] is multiple sclerosis patients. The following applies: cited from earlier work; for clinical positive and negative symptoms of MS: low doses, lidocaine by iv infusion; for clinical positive and negative symptoms of MS / treatment of symptoms of MS: Sakurai and Kanazawa 1999.
The mark [3] stands for this setting: seven MS patients, slow titration from 25 mgs per day, maintenance dose with mean of 600 mgs per day.

Regarding `Nc1nnc(-c2cccc(Cl)c2Cl)c(N)n1` [Lamotrigine, 3,5-diamino-6-(2,3-dichlorophenyl)-1,2,4-triazine], in series [1] (Example 1a, person), the “other MS-related symptoms, such as muscle spasticity in the legs and daytime fatigue” value is “improvement”. The clinical relapses result in series [1] (Example 1a, person, relapsing remitting MS, average of one severe relapse per year before, Lamotrigine from 25 mgs per day escalated gradually) is “no clinical relapses since 1998”; in series [1] (Example 2a, person, relapsing remitting MS, three relapses in first two years before Lamotrigine) it was “no clinical relapses”. Besides, in series [1] (Example 1a, person, sharp pain affecting the legs), the painful symptoms result is given as “improved”. For the same compound, the EDSS score in series [1] (Example 1a, person, remained stable under Lamotrigine (2.5 at start)) was 2.5; in series [1] (Example 2a, person, remained stable under Lamotrigine (1.5 at start)) it was 1.5. Moreover, in series [1] (Examples 3-7, five other patients treated with Lamotrigine), the MS activity entry was “clinical improvement”. In addition, in series [1] (setting [3]), the “clinical activity of MS” value is “improvement”. Further, the disease process result in series [1] (setting [3]) was “stabilisation”.
Turning to `Cc1cccc(C)c1OCC(C)N` (stereo not shown) [mexiletine], in series [2], the “clinical positive and negative symptoms of MS” value was “generally improve clinical positive symptoms rather than worsening negative symptoms”.
`NC(=O)N1c2ccccc2C=Cc2ccccc21` [carbamazepine]: in series [2], the “treatment of symptoms of MS” value is reported as “without appropriate success”. Moreover, the “disability in multiple sclerosis patients” value in series [2] (even at relatively low doses, Ramsaransing et al (2000)) is reported as “seriously enhance disability”.
With `CN(C)CCC=C1c2ccccc2CCc2ccccc21` [Amitriptyline], in series [1] (Example 1b control, person, active relapsing remitting MS), the clinical relapses entry is on record as “continued to have clinical relapses on a yearly basis”. In series [1] (Example 1b control, person, active relapsing remitting MS, intractable pain), the painful symptoms result was “improved”.
On to `CCN(CC)CC(=O)Nc1c(C)cccc1C` [lidocaine], for which, in series [2], the “clinical positive and negative symptoms of MS” value is given as “generally improve clinical positive symptoms rather than worsening negative symptoms”.
Regarding `O=C1NC(=O)C(c2ccccc2)(c2ccccc2)N1` [phenytoin], the “treatment of symptoms of MS” value in series [2] is “without appropriate success”.
